The text below walks through data of patent US12214036B2, “Combination therapy comprising AXL/MER and PD-1/PD-L1 inhibitors” (Incyte Corporation, priority 2020, dated 2025).

The experiment concerns CTG-2426 tumors. The experiment is described as follows: PDX model CTG-2426 (myxofibrosarcoma). The class given is in vivo. The following applies: athymic nude mice. An excerpt:
MBT-2 cells were obtained from the Japanese Collection of Research Bioresources Cell Bank and were maintained in DMEM supplemented with 10% FBS. MC38 cells were obtained from the NCI. 4T1 cells were obtained from ATCC and maintained in RPMI media supplemented with 10% FBS. For MBT-2 experiments, 5×10^5 MBT-2 cells were inoculated subcutaneously into the right hind flank of 6- to 8-week-old C3H mice or athymic nude mice (Charles River Laboratories, Wilmington, Mass.). For MC38 studies, 12-week old female C57BL/6 mice were inoculated with brei of MC38 tumors (in-vivo passage 6) into the right hind flank. For 4T1 studies, 7.5×10^5 4 T1 cells were inoculated subcutaneously into the right hind flank of 6- to 8-week-old female BALB/c mice or athymic nude mice (Charles River Laboratories). […] Mice were monitored for tumor growth and overt tolerability over the course of the experiment. […] Tumor volume was calculated using the formula (L×W^2)/2, where L and W refer to the length and width dimensions, respectively. Tumor growth inhibition (TGI) was calculated using the formula (1−(VT/VC))×100, where VT is the tumor volume of the treatment group on the last day of treatment, and VC is the tumor volume of the control group on the last day of treatment. […]
The activity of Compound 1 in sarcoma PDX models was evaluated as described in Example H for PDX models. […] Three mice per group were analyzed. […]

For the compound `CC(C)C(=O)N1CCC(c2cc(-c3ccc(NC(=O)c4cn(C(C)C)c(=O)n(-c5ccccn5)c4=O)cc3)c3c(N)ncnn23)CC1` [Compound 1, N-(4-(4-Amino-7-(1-isobutyrylpiperidin-4-yl)pyrrolo[1,2-f][1,2,4]triazin-5-yl)phenyl)-1-isopropyl-2,4-dioxo-3-(pyridin-2-yl)-1,2,3,4-tetrahydropyrimidine-5-carboxamide], the “TGI (%)” value worked out at 42%.
